Common to all, as to format: cell-based, human
The subject of one assay is MCF7. The assay is described as follows: In vitro growth inhibition (GI50), SRB assay. As to conditions: for GI50: MCF7 tumor cell line, 3 days; for effect on MCF7 growth compared to ET-18-OCH3 (in words): separate in-house study, Table 3. The source says: The following cell lines were selected from the cell bank for screening and GI50 studies: MCF-7: human breast tumor, MCF-7/ADR: MCF-7 adriamycin resistant subline, HT-29: human colon carcinoma, A-549: human non-small cell lung cancer, NIH-3T3: mouse Swiss embryo fibroblast and WI-38: human lung fibroblast, SKMEL-28: human melanoma, Lewis Lung: mouse lung carcinoma, DU-145: prostate carcinoma, B16F10: mouse melanoma, L1210: murine lymphocytic leukemia, P-388: murine leukemia, U-937: human histolytic lymphoma. Except HT-29, WI-38, NIH-3T3 and Lewis Lung which were obtained from the American Type Culture Collection (Rockville, Md.) all the other cell lines were obtained from National Cancer Institute—Frederick Research Facility (Frederick, Md.). All the cell lines were grown in RPMI-1640 medium containing 10% fetal bovine serum (FBS) except WI-38 and DU-145 which were grown in EMEM+10% FBS at 37° C., 5% CO2 and 100% humidity and NIH-3T3, Lewis Lung, B16F10 and L1210 which were grown in DMEM containing 10% FBS (10% HS for L1210). All the adherent cell lines were detached from the culture flasks by addition of 2-3 ml of 0.05% trypsin-EDTA. Thereafter, trypsin was inactivated by addition of 10 mL of 10% serum-containing RPMI-1640 medium. Cells were separated into a single-cell suspension by gentle pipetting action. Depending on the cell type, […] to 10,000 cells were plated onto 96-well plates a day prior to the drug treatment, in a volume of 100 μl per well.
The test compounds were made in-house and the compounds were dissolved PBS or saline at a stock concentration of approximately 20 mM, which is 400 times the desired final maximum test concentration. The stock solutions were then diluted with complete medium to twice the desired final concentration. 100 μl aliquots of each dilution was then added to the designated wells. After 3 days of incubation, cell growth was determined.
The SRB assay was performed as described by Monks, A., Scudiero, D., Skehan, P., Shoemaker, R., Paull, K., Vistica, D., Hose, C., Langley, J., Cronise, P., and Vaigro-Wolff, A. Feasibility of a high-flux anticancer drug screen using a diverse panel of cultured human tumo-r cell lines. J Natl Cancer Inst, 83: 757-766, 1991 with minor modifications. Following drug treatment, cells were fixed with 50 μl of cold 50% (wt/vol) trichloroacetic acid (TCA) for 60 minutes at 4° C. The supernatant was discarded, and the plates were washed six times with deionized water and then air dried. The precipitate was stained with 100 μl SRB solution (0.4% wt/vol in 1% acetic acid) for 10 minutes at room temperature, and free SRB was removed by washing three times with 1% acetic acid, and the plates were then air dried. Bound SRB was solubilized with Tris buffer (10 mM), and the ODs were read using an automated plate reader (Bio-Rad, Model 3550-UV) at 490 nm. Background values were subtracted from the test data, and the data was calculated as a % of control. […] Percentage growth was calculated as described by, Peters, A. C., Ahmad, I., Janoff, A. S., Pushkareva, M. Y., and Mayhew, E. Growth Inhibitory effects of liposome-associated 1-o-octadecyl-2-o-methyl-sn-glycero-3-phosphocholine. Lipids, 32:1045-1054, 1997. The raw optical density data Was imported into an Excel spreadsheet to determine dose responses. […] By varying drug concentration,-dose response curves were generated and the GI-50 values were calculated. The GI50 values for each experiment were calculated using data obtained from three duplicate wells on two separate plates.
For growth inhibitory evaluation, we used five human tumor cell lines (U937; HT29; A549; MCF7; MCF7/ADR) and two normal fibroblast cell lines (NIH-3T3, murine; WI-38, human).
A general note: Sulforhodamine B stains cellular protein and so reports cell mass.

A further assay deals with UO-31. The experiment in a line: NCI growth inhibition screen, renal panel. As to conditions: for Performance as compared to ET-18-O—CH3: UO-31, Renal, from GI50s; for activity compared to ET-18-OCH3 (in words): UO-31 cell line, NCI screen. Also on record: key to Performance as compared to ET-18-O—CH3: = means equivalent activity; + means that it appears to be significantly better (i.e., by ˜2x); < means it appears to be less active than ET18OCH3 (˜2x); a combination like =/+ or </+ means that activity is dependent upon the isomer; a combination like =/+ or </+ means that activity is dependent upon the isomer. As to the method: (§1) Candidates deemed suitable for in vivo testing were then synthesized in large scale quantities and some of this material was sent to the NCI's Developmental Therapeutics Program for a battery of growth inhibitory studies against various human tumor cell lines (60 cell lines, 9 different panels). The remainder of the material was used to assess in vivo efficacy using murine tumor models. Additionally, studies were conducted on the lead candidates to discern mechanism of action with particular emphasis on these agents apoptotic ability as measured by caspase 3 activity. The details (materials and methods) for these various assays are described further in the following discussion.
(§2) Ten compounds were also sent to NCI's Drug Discovery Program for screening against numerous human tumor cell lines (9 panels total: renal ovarian, colon, CNS, non-small cell lung, leukemia, breast, melanoma, and prostate). The data are shown in FIGS. 2a-i which also include data regarding D- and L-ET-18-OCH3 (listed as L-EL and D-EL in the figures). Upon examining the data, one is struck by how 1R and 1a′S standout in comparison to the other compounds, especially for the renal, ovarian, colon, and CNS panels.

The next assay concerns K-562. The experiment in a line: NCI growth inhibition screen, leukemia panel. Set-up: key to Performance as compared to ET-18-O—CH3: = means equivalent activity; + means that it appears to be significantly better (i.e., by ˜2x); < means it appears to be less active than ET18OCH3 (˜2x); a combination like =/+ or </+ means that activity is dependent upon the isomer; a combination like =/+ or </+ means that activity is dependent upon the isomer. As to conditions: for Performance as compared to ET-18-O—CH3: K-562, Leukemia, from GI50s. As for the experimental part:
as §1, §2

In a further assay the test system is RPMI-8226. The assay is described as follows: NCI growth inhibition screen, leukemia panel. As to conditions: for Performance as compared to ET-18-O—CH3: RPMI-8226, Leukemia, from GI50s; for activity (in words): RPMI-8226 cell line, NCI screen. Set-up: key to Performance as compared to ET-18-O—CH3: = means equivalent activity; + means that it appears to be significantly better (i.e., by ˜2x); < means it appears to be less active than ET18OCH3 (˜2x); a combination like =/+ or </+ means that activity is dependent upon the isomer; a combination like =/+ or </+ means that activity is dependent upon the isomer. As for the experimental part: as §1, §2

“And” between values parts separate entries of the source, which are not always exact repeats. Equal values may be shown once. Bounds are passed on as bounds.

Broadly, the GI50 is the concentration giving 50% growth inhibition. Consider `CCCCCCCCCCCCCCCCCCOC[C@@H](COP(=O)([O-])OCC[N+](C)(C)C)OS(C)(=O)=O` [1a′S], for which, in the assay on MCF7, the GI50 was determined as 31.3 µM and the “effect on MCF7 growth compared to ET-18-OCH3 (in words)” value was “appeared worse”. Further, in the assay on UO-31, the “Performance as compared to ET-18-O—CH3” value came to 64 and the “activity compared to ET-18-OCH3 (in words)” value is listed as “more active”. In the assay on K-562, the “Performance as compared to ET-18-O—CH3” value is reported as “=/+”. Moreover, in the assay on RPMI-8226, the “Performance as compared to ET-18-O—CH3” value is reported as “</+” and the “activity (in words)” value was “poor activity”.
For the compound `CCCCCCCCCCCCCCCCCCOCC(COP(=O)([O-])OCC[N+](C)(C)C)OS(C)(=O)=O` (stereo not shown) [Compound 1aR], in the assay with MCF7, the concentration for 50% growth inhibition (GI50) is 24.3 µM and 26.4 µM; the “effect on MCF7 growth compared to ET-18-OCH3 (in words)” value is listed as “appeared worse”. Moreover, in the assay with UO-31, the “Performance as compared to ET-18-O—CH3” value is “+” and the “activity compared to ET-18-OCH3 (in words)” value is listed as “more active”. Besides, in the assay with K-562, the “Performance as compared to ET-18-O—CH3” value is listed as “=/+”. Further, the “Performance as compared to ET-18-O—CH3” value in the assay with RPMI-8226 is “=/+”.
In the assay on MCF7, `CCCCCCCCCCCCCCCCCCOCC(COP(=O)([O-])OCC[N+](C)(C)C)OC` [D-ET18OCH3, 1-O-octadecyl-2-O-methyl-glycerophosphocholine, reference compound] yielded a 50% growth inhibitory concentration (GI50) of 14.6 µM. Besides, the “activity (in words)” value in the assay on K-562 (K-562 cell line, NCI screen) is on record as “extremely poor activity”; with RPMI-8226, “extremely poor activity”.

Source of the values: US20060122153A1, “Antineoplastic ether lipid compounds with modifications at the sn-2 carbon” (priority 2003, published 2006).
